Here are results for 25 compounds from patent US20240398828A1, “HETERO-ATOM CONTAINING COMPOUNDS AND USES THEREOF” (Kumquat Biosciences Inc., priority 2021, published 2024).

Bounds are passed on as bounds.

One experiment deals with T1, PTPN2 (i.e., TC-PTP) (Homo sapiens, UniProt P17706).
T1 sequence (P17706 1-415): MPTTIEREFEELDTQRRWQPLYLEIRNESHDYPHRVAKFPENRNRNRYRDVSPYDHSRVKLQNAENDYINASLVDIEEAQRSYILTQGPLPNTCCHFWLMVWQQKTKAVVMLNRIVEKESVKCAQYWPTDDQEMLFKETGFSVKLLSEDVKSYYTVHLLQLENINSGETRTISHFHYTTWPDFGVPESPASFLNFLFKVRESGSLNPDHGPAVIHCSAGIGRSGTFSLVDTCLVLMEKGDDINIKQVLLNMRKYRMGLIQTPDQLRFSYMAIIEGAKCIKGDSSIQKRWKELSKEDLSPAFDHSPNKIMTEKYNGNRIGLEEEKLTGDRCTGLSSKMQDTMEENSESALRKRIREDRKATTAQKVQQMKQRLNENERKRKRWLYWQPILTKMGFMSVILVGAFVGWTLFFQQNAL
Kind of experiment: Phosphatase activity assay (DiFMUP substrate), PTPN2. It is filed as biochemical. As to conditions: compounds binned ≤1 uM or >1 uM. The method in brief: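 Read-out is continuous fluorescence of DiFMU (360 nm excitation, 450 nm emission) over about 15-30 minutes, with DiFMUP substrate at the enzyme's independently determined Km (PTPN2 approx. 45 μM final). Buffer: 50 mM HEPES pH 7.5, 150 mM NaCl, 0.5 mM EDTA, 1 mM DTT, 0.001% Tween-20, room temperature; initial rates versus 10-point dilution fitted for IC50, at least duplicate.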

In the next experiment the target is T2, PTPN1 (i.e., PTP1B) (Homo sapiens, UniProt P18031).
T2 sequence (P18031 1-435): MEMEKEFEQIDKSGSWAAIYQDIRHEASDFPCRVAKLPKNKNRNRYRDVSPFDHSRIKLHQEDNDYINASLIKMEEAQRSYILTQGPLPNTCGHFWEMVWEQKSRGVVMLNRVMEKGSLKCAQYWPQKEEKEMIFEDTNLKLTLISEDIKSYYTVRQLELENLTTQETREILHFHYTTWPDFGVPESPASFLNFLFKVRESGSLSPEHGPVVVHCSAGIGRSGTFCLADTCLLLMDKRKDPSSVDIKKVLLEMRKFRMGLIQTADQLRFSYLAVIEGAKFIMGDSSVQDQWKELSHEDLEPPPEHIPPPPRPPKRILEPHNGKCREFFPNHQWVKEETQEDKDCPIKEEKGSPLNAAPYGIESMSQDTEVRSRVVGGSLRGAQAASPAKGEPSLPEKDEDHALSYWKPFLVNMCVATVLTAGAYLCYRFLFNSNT
Kind of experiment: Phosphatase activity assay (DiFMUP substrate), PTP1B. It is filed as biochemical. The note with it: compounds binned ≤1 uM or >1 uM. Summed up: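 Enzyme (e.g. PTPN2 0.025 ng/ul) mixed about 2 min with compound at 10 serial concentrations in 50 mM HEPES pH 7.5, 150 mM NaCl, 0.5 mM EDTA, 1 mM DTT, 0.001% Tween-20 at room temperature. DiFMUP added at each enzyme's Km (about 45 μM for PTPN2). DiFMU fluorescence (ex 360/em 450 nm) followed 15-30 min; IC50 from 4-parameter fit of rates.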

As a reminder, the IC50 is the concentration at which inhibition is half-maximal. For `N#Cc1ccc(Cn2cc(-c3ccc(O)c(N4CC(=O)NS4(=O)=O)c3F)cn2)cc1F` [Compound 157, 4-((4-(3-(1,1-dioxido-4-oxo-1,2,5-thiadiazolidin-2-yl)-2-fluoro-4-hydroxyphenyl)-1H-pyrazol-1-yl)methyl)-2-fluorobenzonitrile], the IC50 at PTPN2 (i.e., TC-PTP) was ≤ 1000 nM; on PTPN1 (i.e., PTP1B), ≤ 1000 nM.

Consider `O=C1CN(c2c(O)ccc(-c3cc(CCC4CCCCC4)n[nH]3)c2F)S(=O)(=O)N1` [Compound 455, 5-(3-(3-(2-cyclohexylethyl)-1H-pyrazol-5-yl)-2-fluoro-6-hydroxyphenyl)-1,2,5-thiadiazolidin-3-one 1,1-dioxide], for which the IC50 on PTPN2 (i.e., TC-PTP) is ≤ 1000 nM; on PTPN1 (i.e., PTP1B), ≤ 1000 nM.

In the case of `Cn1nc(-c2ccc(O)c(N3CC(=O)NS3(=O)=O)c2F)cc1C1(N)CC1` [Compound 345, 5-(3-(5-(1-aminocyclopropyl)-1-methyl-1H-pyrazol-3-yl)-2-fluoro-6-hydroxyphenyl)-1,2,5-thiadiazolidin-3-one 1,1-dioxide], the half-maximal inhibitory concentration (IC50) at PTPN2 (i.e., TC-PTP) is ≤ 1000 nM; at PTPN1 (i.e., PTP1B), ≤ 1000 nM.

As for `CC(C)Cc1cc(-c2ccc(O)c(N3CC(=O)NS3(=O)=O)c2F)[nH]n1` [Compound 370, 5-(2-fluoro-6-hydroxy-3-(3-isobutyl-1H-pyrazol-5-yl)phenyl)-1,2,5-thiadiazolidin-3-one 1,1-dioxide], the IC50 is ≤ 1000 nM at PTPN2 (i.e., TC-PTP) and ≤ 1000 nM on PTPN1 (i.e., PTP1B).

Take `Cc1ncc(-c2ccc(O)c(N3CC(=O)NS3(=O)=O)c2F)[nH]1` [Compound 263, 5-(2-fluoro-6-hydroxy-3-(2-methyl-1H-imidazol-5-yl)phenyl)-1,2,5-thiadiazolidin-3-one 1,1-dioxide]: the half-maximal inhibitory concentration (IC50) on PTPN2 (i.e., TC-PTP) is ≤ 1000 nM; at PTPN1 (i.e., PTP1B), ≤ 1000 nM.

On to `O=C1CC(c2c(O)ccc(-c3cn(CC4CCCCC4)cn3)c2F)S(=O)(=O)N1` (centres unmarked) [Compound 419, 5-(3-(1-(cyclohexylmethyl)-1H-imidazol-4-yl)-2-fluoro-6-hydroxyphenyl)isothiazolidin-3-one 1,1-dioxide], for which the IC50 was > 1000 nM at PTPN2 (i.e., TC-PTP) and > 1000 nM on PTPN1 (i.e., PTP1B).

On to `O=C1CN(c2c(O)ccc(-c3cn(C4CCCCC4)cn3)c2F)S(=O)(=O)N1` [Compound 459, 5-(3-(1-cyclohexyl-1H-imidazol-4-yl)-2-fluoro-6-hydroxyphenyl)-1,2,5-thiadiazolidin-3-one 1,1-dioxide], for which the 50% inhibitory concentration (IC50) is ≤ 1000 nM on PTPN2 (i.e., TC-PTP) and ≤ 1000 nM on PTPN1 (i.e., PTP1B).

On to `O=C1CN(c2c(O)ccc(-c3cn(-c4ccc(F)c(F)c4)cn3)c2F)S(=O)(=O)N1` [Compound 289, 5-(3-(1-(3,4-difluorophenyl)-1H-imidazol-4-yl)-2-fluoro-6-hydroxyphenyl)-1,2,5-thiadiazolidin-3-one 1,1-dioxide], for which the IC50 on PTPN2 (i.e., TC-PTP) was ≤ 1000 nM; at PTPN1 (i.e., PTP1B) it was ≤ 1000 nM.

Consider `COc1cc(-c2ccc(O)c(N3CC(=O)NS3(=O)=O)c2F)[nH]n1` [Compound 428, 5-(2-fluoro-6-hydroxy-3-(3-methoxy-1H-pyrazol-5-yl)phenyl)-1,2,5-thiadiazolidin-3-one 1,1-dioxide], for which the concentration for half-maximal inhibition (IC50) was ≤ 1000 nM on PTPN2 (i.e., TC-PTP) and ≤ 1000 nM on PTPN1 (i.e., PTP1B).

Turning to `COc1cc(-c2ccc(O)c(N3CC(=O)NS3(=O)=O)c2F)ccn1` [Compound 107, 5-(2-fluoro-6-hydroxy-3-(2-methoxypyridin-4-yl)phenyl)-1,2,5-thiadiazolidin-3-one 1,1-dioxide], the half-inhibitory concentration (IC50) at PTPN2 (i.e., TC-PTP) was ≤ 1000 nM; on PTPN1 (i.e., PTP1B), ≤ 1000 nM.

As to `CC(C)n1cnc(-c2ccc(O)c(N3CC(=O)NS3(=O)=O)c2F)c1` [Compound 165, 5-(2-fluoro-6-hydroxy-3-(1-isopropyl-1H-imidazol-4-yl)phenyl)-1,2,5-thiadiazolidin-3-one 1,1-dioxide], the IC50 at PTPN2 (i.e., TC-PTP) is ≤ 1000 nM; on PTPN1 (i.e., PTP1B) it was ≤ 1000 nM.

Take `CC(C)CCn1cc(-c2ccc(O)c(N3CC(=O)NS3(=O)=O)c2F)nn1` [Compound 219, 5-(2-fluoro-6-hydroxy-3-(1-isopentyl-1H-1,2,3-triazol-4-yl)phenyl)-1,2,5-thiadiazolidin-3-one 1,1-dioxide]: the IC50 on PTPN2 (i.e., TC-PTP) was ≤ 1000 nM; on PTPN1 (i.e., PTP1B), ≤ 1000 nM.

As to `O=C1CN(c2c(O)ccc(-c3cn(C4CCCCC4)nc3F)c2F)S(=O)(=O)N1` [Compound 469, 5-(3-(1-cyclohexyl-3-fluoro-1H-pyrazol-4-yl)-2-fluoro-6-hydroxyphenyl)-1,2,5-thiadiazolidin-3-one 1,1-dioxide], the IC50 was ≤ 1000 nM at PTPN2 (i.e., TC-PTP) and ≤ 1000 nM on PTPN1 (i.e., PTP1B).

In the case of `O=C1CN(c2c(O)ccc(C3=CCN(S(=O)(=O)C4CC4)C3)c2F)S(=O)(=O)N1` [Compound 238, 5-(3-(1-(cyclopropylsulfonyl)-2,5-dihydro-1H-pyrrol-3-yl)-2-fluoro-6-hydroxyphenyl)-1,2,5-thiadiazolidin-3-one 1,1-dioxide], the IC50 at PTPN2 (i.e., TC-PTP) is ≤ 1000 nM; on PTPN1 (i.e., PTP1B) it was ≤ 1000 nM.

Take `O=C1CN(c2c(O)ccc(-c3cc(N4CCC4)n[nH]3)c2F)S(=O)(=O)N1` [Compound 417, 5-(3-(3-(azetidin-1-yl)-1H-pyrazol-5-yl)-2-fluoro-6-hydroxyphenyl)-1,2,5-thiadiazolidin-3-one 1,1-dioxide]: the IC50 at PTPN2 (i.e., TC-PTP) is ≤ 1000 nM; at PTPN1 (i.e., PTP1B), ≤ 1000 nM.

Turning to `CC(N)c1cc(-c2ccc(O)c(N3CC(=O)NS3(=O)=O)c2F)[nH]n1` (centres unmarked) [Compound 297, 5-(3-(3-(1-aminoethyl)-1H-pyrazol-5-yl)-2-fluoro-6-hydroxyphenyl)-1,2,5-thiadiazolidin-3-one 1,1-dioxide], the IC50 at PTPN2 (i.e., TC-PTP) is ≤ 1000 nM; on PTPN1 (i.e., PTP1B), ≤ 1000 nM.

Turning to `O=C1CN(c2c(O)ccc(-c3cc(C4CC4)n(CC(F)F)n3)c2F)S(=O)(=O)N1` [Compound 435, 5-(3-(5-cyclopropyl-1-(2,2-difluoroethyl)-1H-pyrazol-3-yl)-2-fluoro-6-hydroxyphenyl)-1,2,5-thiadiazolidin-3-one 1,1-dioxide], the half-maximal inhibitory concentration (IC50) is ≤ 1000 nM on PTPN2 (i.e., TC-PTP) and ≤ 1000 nM at PTPN1 (i.e., PTP1B).

As to `COc1ccccc1-n1cnc(-c2ccc(O)c(N3CC(=O)NS3(=O)=O)c2F)c1` [Compound 346, 5-(2-fluoro-6-hydroxy-3-(1-(2-methoxyphenyl)-1H-imidazol-4-yl)phenyl)-1,2,5-thiadiazolidin-3-one 1,1-dioxide], the IC50 on PTPN2 (i.e., TC-PTP) was ≤ 1000 nM; on PTPN1 (i.e., PTP1B), ≤ 1000 nM.

In the case of `O=C1CN(c2c(O)ccc(-c3cnn(CCC(F)F)c3)c2F)S(=O)(=O)N1` [Compound 510, 5-(3-(1-(3,3-difluoropropyl)-1H-pyrazol-4-yl)-2-fluoro-6-hydroxyphenyl)-1,2,5-thiadiazolidin-3-one 1,1-dioxide], the half-inhibitory concentration (IC50) on PTPN2 (i.e., TC-PTP) was ≤ 1000 nM; on PTPN1 (i.e., PTP1B), ≤ 1000 nM.

Regarding `O=C1CN(c2c(O)ccc(-c3cnc(NS(=O)(=O)C4CC4)nc3)c2F)S(=O)(=O)N1` [Compound 234, N-(5-(3-(1,1-dioxido-4-oxo-1,2,5-thiadiazolidin-2-yl)-2-fluoro-4-hydroxyphenyl)pyrimidin-2-yl)cyclopropanesulfonamide], the 50% inhibitory concentration (IC50) at PTPN2 (i.e., TC-PTP) was ≤ 1000 nM; at PTPN1 (i.e., PTP1B), ≤ 1000 nM.

As to `Cn1nc(C2CC2)cc1-c1ccc(O)c(N2CC(=O)NS2(=O)=O)c1F` [Compound 278, 5-(3-(3-cyclopropyl-1-methyl-1H-pyrazol-5-yl)-2-fluoro-6-hydroxyphenyl)-1,2,5-thiadiazolidin-3-one 1,1-dioxide], the 50% inhibitory concentration (IC50) on PTPN2 (i.e., TC-PTP) was ≤ 1000 nM; on PTPN1 (i.e., PTP1B) it was ≤ 1000 nM.

Turning to `O=C1CN(c2c(O)ccc(-c3cc(C4CC4(F)F)n[nH]3)c2F)S(=O)(=O)N1` (centres unmarked) [Compound 364, 5-(3-(3-(2,2-difluorocyclopropyl)-1H-pyrazol-5-yl)-2-fluoro-6-hydroxyphenyl)-1,2,5-thiadiazolidin-3-one 1,1-dioxide], the IC50 is ≤ 1000 nM at PTPN2 (i.e., TC-PTP) and ≤ 1000 nM on PTPN1 (i.e., PTP1B).

As to `O=C1CN(c2c(O)ccc(-c3cc(C#CC4CC4)n[nH]3)c2F)S(=O)(=O)N1` [Compound 352, 5-(3-(3-(cyclopropylethynyl)-1H-pyrazol-5-yl)-2-fluoro-6-hydroxyphenyl)-1,2,5-thiadiazolidin-3-one 1,1-dioxide], the IC50 on PTPN2 (i.e., TC-PTP) is ≤ 1000 nM; on PTPN1 (i.e., PTP1B), ≤ 1000 nM.

`Cn1nc(-c2ccc(O)c(N3CC(=O)NS3(=O)=O)c2F)cc1C1CC1` [Compound 367, 5-(3-(5-cyclopropyl-1-methyl-1H-pyrazol-3-yl)-2-fluoro-6-hydroxyphenyl)-1,2,5-thiadiazolidin-3-one 1,1-dioxide]: the concentration for half-maximal inhibition (IC50) at PTPN2 (i.e., TC-PTP) was ≤ 1000 nM; at PTPN1 (i.e., PTP1B), ≤ 1000 nM.

`O=C1CN(c2c(O)ccc(-c3cn(Cc4ccccc4)nn3)c2F)S(=O)(=O)N1` [Compound 205, 5-(3-(1-benzyl-1H-1,2,3-triazol-4-yl)-2-fluoro-6-hydroxyphenyl)-1,2,5-thiadiazolidin-3-one 1,1-dioxide]: the IC50 at PTPN2 (i.e., TC-PTP) was ≤ 1000 nM; on PTPN1 (i.e., PTP1B), ≤ 1000 nM.
